Laboratory results published in patent US11554124B2, “Hematopoiesis-enhancing agent” (priority 2018, dated 2023).

System: bone marrow erythroblasts
Assay: Flow cytometry of bone marrow cells / erythroblast subsets (Ter119/CD71 double staining) of treated mice
Format: in vivo, mouse
Description: Wild-type mice with a genetic background of C57BL/6J were purchased from Charles River Laboratories, Inc. Mice at 8 to 14 weeks of age were used for analysis. For CLEU treatment (50 mg/body), a solution of cycloleucine (CLEU) was prepared by diluting cycloleucine (CLEU) (Sigma) in PBS (50 mg/ml), and 1 ml of the CLEU solution was administered intraperitoneally. For AKBA treatment (2 mg/body), 2 mg AKBA (Enzo Life Sciences)/20% DMSO/1 mL PBS solution was administered intraperitoneally. Vehicle without AKBA was used as a control. For measuring complete blood count of peripheral blood, peripheral blood was collected from facial veins and counted by use of an automated animal blood cell counter (microsemi LC-662). All of the experiments conducted in this study were approved by the Animal Experiment Committee of the Environmental Safety Committee of Tohoku University.
BM cells and spleen cells were harvested in a conventional manner. Cells were stained with combinations of antibodies specific to erythroblasts and mature cells, to thereby identify them. The cells were visualized with antibody and streptavidin-peridinin chlorophyll protein-cyanin 5.5. The antibodies used in this study were as follows: anti-CD3e (145-2C11), anti-CD4 (GK1.5 or RM4.5), anti-CD8a (53-6.7), anti-Gr-1 (RB6-8C5), anti-B220 (RA3-6B2), anti-Ter-119 (TER-119), anti-CD71 (R17217 or C2). Cells were stained with […] (Sigma), and dead cells were excluded from analysis. Flow cytometric analysis and cell sorting were performed according to the manufacturer's protocol using FACS AriaII (BD), and then the obtained data were analyzed using FlowJo software (TreeStar).
Additionally, MAT inhibitor PF9366 (PF) was administered to mice and the effect thereof was investigated. Vehicle (DMSO) (control (Ctrl)) or 10 mM PF9366 (prepared at a concentration of 40 μl/40 ml water) was provided in a drinking bottle (0 h). In addition, 80 μl of vehicle (DMSO) or 80 μl of 10 mM PF9366 dissolved in 1 ml PBS was also administered intraperitoneally at 0 h and 24 h. Analysis was carried out at Day 2 (48 h).
MAT inhibitor 3-acetyl-11-keto-β-boswellic acid (AKBA; 2 mg/body) was intraperitoneally administered to mice at 0 and 24 hours, and analyzed after 48 hours.

[1] = PF9366 in drinking water plus i.p. at 0 h and 24 h, Day 2 (48 h), vs DMSO

| Structure (SMILES) | subset from which the increase of erythroblast was initiated (PF9366 10 mM: 40 μl/40 ml drinking water plus 80 μl in 1 ml PBS i.p. at 0 h and 24 h, Day 2 (48 h), vs DMSO) | erythroblast maturation index [1] | maturation of erythroblasts [1] | maturation of erythroblasts (AKBA 2 mg/body i.p. at 0 and 24 hours, analyzed after 48 hours, Ter119/CD71 double staining, vs vehicle) |
| --- | --- | --- | --- | --- |
| CN(C)CCc1nnc2cc(-c3ccccc3)c3cc(Cl)ccc3n12 [PF9366, 2-(7-chloro-5-phenyl-[1,2,4]triazolo[4,3-a]quinolin-1-yl)-N,N-dimethylethan-1-amine] | initiated from subset III | significant difference | significantly up-regulated | – |
| CC(=O)O[C@@H]1CC[C@@]2(C)[C@@H](CC[C@]3(C)[C@@H]2C(=O)C=C2[C@@H]4[C@@H](C)[C@H](C)CC[C@]4(C)CC[C@]23C)[C@@]1(C)C(=O)O [AKBA, 3-acetyl-11-keto-β-boswellic acid] | – | – | – | significantly up-regulated |
